Test results reported in patent US20220202799A1, “PHARMACEUTICAL FORMULATIONS CONTAINING P2Y14 ANTAGONISTS” (priority 2019, published 2022).
Several values for one entry are separate records, joined by “and”; a condition that tells them apart may be missing. Equal entries are not always repeated. Where two headings read alike, the source gives them in different places.

Columns and labels:
[1] = Urine PPTN concentration after single bolus intravenous injection; format: in vivo; conditions: male rats; single bolus intravenous injection 0.85, 2.9 or 8.5 mg/kg
Protocol: The pharmacokinetics of PPTN (KB-1801) in male rats receiving single bolus intravenous injections of SBECD-containing solutions were analyzed. Three cohorts of four rats each were given a single dose of PPTN (KB-1801) at 0.85 mg/kg, 2.9 mg/kg, or 8.5 mg/kg in 1 mL dosing volume.

[2] = Plasma concentrations and TK parameters, 72-hour continuous intravenous infusion; format: in vivo, Sprague-Dawley rats; conditions: for Accumulation ratio (C72h/C24h) / Css / Female/Male C72h / Accumulation ratio / half-life: 72 hours of intravenous infusion; for half-life / concentration at 24 h / concentration at 48 h / concentration at 72 h / concentration at 78 h / concentration at 84 h / concentration at 96 h: Sprague-Dawley, rat, plasma; for Plasma concentration, individual animal / concentration at 24 h / concentration at 48 h / concentration at 72 h / concentration at 78 h / concentration at 84 h / concentration at 96 h: female Sprague-Dawley rats; for concentration at 24 h / concentration at 48 h / concentration at 72 h / concentration at 78 h / concentration at 84 h / concentration at 96 h: female, iv
Protocol: The safety and pharmacokinetics of PPTN (KB-1801) in rats receiving continuous intravenous injections of SBECD-containing solutions were analyzed. Three cohorts of six male and six female rats each were given continuous intravenous infusion of PPTN (KB-1801) at 10 mg/kg/day, 30 mg/kg/day or 100 mg/kg/day in a dosing solution containing PPTN at 0.25 mg/mL, 0.75 mg/mL or 2.5 mg/mL and SBECD at about 3.8%. Dosing volume was 40 mIkg/day. [table]

[3] = Female, Group 16, 100 mg/kg/day

O=C(O)c1cc(-c2ccc(C3CCNCC3)cc2)c2ccc(-c3ccc(C(F)(F)F)cc3)cc2c1 [KB-1801, 4-[4-(piperidin-4-yl)phenyl]-7-[4-(trifluoromethyl)phenyl]-2-naphthoic acid]
Urine concentration compared with plasma [1]: in excess of plasma concentrations
Accumulation ratio (C72h/C24h) ([2]; Female, Group14, 10 mg/kg/day): 0.91
Css ([2]; Female, Group14, 10 mg/kg/day): 606.0 ± 52.0 ng/mL
Accumulation ratio (C72h/C24h) ([2]; Female, Group 15, 30 mg/kg/day): 0.84
Css ([2]; Female, Group 15, 30 mg/kg/day): 2037.0 ± 433.7 ng/mL
Accumulation ratio (C72h/C24h) [2, 3]: 0.88
Css [2, 3]: 6595.6 ± 696.2 ng/mL
Female/Male C72h ([2]; Group14, 10 mg/kg/day): 1.05
Female/Male C72h ([2]; Group 15, 30 mg/kg/day): 1.18
Female/Male C72h ([2]; Group 16, 100 mg/kg/day): 0.70
Accumulation ratio ([2]; Male, Group14, 10 mg/kg/day): 0.74
Css ([2]; Male, Group14, 10 mg/kg/day): 636.4 ± 96.8 ng/mL
Accumulation ratio ([2]; Male, Group 15, 30 mg/kg/day): 0.86
Css ([2]; Male, Group 15, 30 mg/kg/day): 1974.4 ± 240.2 ng/mL
Accumulation ratio ([2]; Male, Group 16, 100 mg/kg/day): 1.03
Css ([2]; Male, Group 16, 100 mg/kg/day): 7774.6 ± 1241.3 ng/mL
half-life ([2]; Female, Group14, 10 mg/kg/day): 6.67 ± 1.21 h
half-life ([2]; Female, Group 15, 30 mg/kg/day): 7.06 ± 0.93 h
half-life [2, 3]: 6.64 ± 0.36 h
half-life ([2]; Male, Group14, 10 mg/kg/day): 7.91 ± 1.06 h
half-life ([2]; Male, Group 15, 30 mg/kg/day): 8.29 ± 0.93 h
half-life ([2]; Male, Group 16, 100 mg/kg/day): 8.83 ± 3.33 h
Plasma concentration, individual animal ([2]; 72-hour intravenous infusion at 10 mg/kg/day, time 24 h, 10 mg/kg/day): 784.2 ng/mL and 685.7 ng/mL
Plasma concentration, individual animal ([2]; 72-hour intravenous infusion at 10 mg/kg/day, time 48 h, 10 mg/kg/day): 650.5 ng/mL and 588.8 ng/mL
Plasma concentration, individual animal ([2]; 72-hour intravenous infusion at 10 mg/kg/day, time 72 h, 10 mg/kg/day): 756.4 ng/mL and 602.0 ng/mL
Plasma concentration, individual animal ([2]; 72-hour intravenous infusion at 10 mg/kg/day, time 78 h, 10 mg/kg/day): 131.4 ng/mL and 160.1 ng/mL
Plasma concentration, individual animal ([2]; 72-hour intravenous infusion at 10 mg/kg/day, time 84 h, 10 mg/kg/day): 103.5 ng/mL and 64.3 ng/mL
Plasma concentration, individual animal ([2]; 72-hour intravenous infusion at 10 mg/kg/day, time 96 h, 10 mg/kg/day): 22.9 ng/mL and 15.3 ng/mL
Plasma concentration, individual animal ([2]; 72-hour intravenous infusion at 30 mg/kg/day, time 24 h, 30 mg/kg/day): 2027.1 ng/mL and 2581.5 ng/mL
Plasma concentration, individual animal ([2]; 72-hour intravenous infusion at 30 mg/kg/day, time 48 h, 30 mg/kg/day): 1661.0 ng/mL and 1763.6 ng/mL
Plasma concentration, individual animal ([2]; 72-hour intravenous infusion at 30 mg/kg/day, time 72 h, 30 mg/kg/day): 1397.7 ng/mL and 2300.3 ng/mL
Plasma concentration, individual animal ([2]; 72-hour intravenous infusion at 30 mg/kg/day, time 78 h, 30 mg/kg/day): 449.3 ng/mL and 585.0 ng/mL
Plasma concentration, individual animal ([2]; 72-hour intravenous infusion at 30 mg/kg/day, time 84 h, 30 mg/kg/day): 453.1 ng/mL and 160.2 ng/mL and 306.2 ng/mL
Plasma concentration, individual animal ([2]; 72-hour intravenous infusion at 30 mg/kg/day, time 96 h, 30 mg/kg/day): 75.6 ng/mL and 115.3 ng/mL
Plasma concentration, individual animal ([2]; 72-hour intravenous infusion at 100 mg/kg/day, time 24 h, 100 mg/kg/day): 6709.0 ng/mL and 8238.2 ng/mL
Plasma concentration, individual animal ([2]; 72-hour intravenous infusion at 100 mg/kg/day, time 48 h, 100 mg/kg/day): 5872.0 ng/mL and 8226.5 ng/mL
Plasma concentration, individual animal ([2]; 72-hour intravenous infusion at 100 mg/kg/day, time 72 h, 100 mg/kg/day): 6680.1 ng/mL and 6734.5 ng/mL
Plasma concentration, individual animal ([2]; 72-hour intravenous infusion at 100 mg/kg/day, time 78 h, 100 mg/kg/day): 1454.4 ng/mL and 2119.8 ng/mL
Plasma concentration, individual animal ([2]; 72-hour intravenous infusion at 100 mg/kg/day, time 84 h, 100 mg/kg/day): 1075.5 ng/mL and 1046.1 ng/mL
Plasma concentration, individual animal ([2]; 72-hour intravenous infusion at 100 mg/kg/day, time 96 h, 100 mg/kg/day): 211.8 ng/mL and 342.6 ng/mL
concentration at 24 h ([2]; 10 mg/kg/day, 72-hour intravenous infusion at 10 mg/kg/day, time 24 h, read-out: Plasma concentration, Mean): 688 ng/mL
concentration at 24 h ([2]; 10 mg/kg/day, 72-hour intravenous infusion at 10 mg/kg/day, time 24 h, read-out: Plasma concentration, individual animal): 595 ng/mL
concentration at 48 h ([2]; 10 mg/kg/day, 72-hour intravenous infusion at 10 mg/kg/day, time 48 h, read-out: Plasma concentration, Mean): 654 ng/mL
concentration at 48 h ([2]; 10 mg/kg/day, 72-hour intravenous infusion at 10 mg/kg/day, time 48 h, read-out: Plasma concentration, individual animal): 722 ng/mL
concentration at 72 h ([2]; 10 mg/kg/day, 72-hour intravenous infusion at 10 mg/kg/day, time 72 h, read-out: Plasma concentration, Mean): 624 ng/mL
concentration at 72 h ([2]; 10 mg/kg/day, 72-hour intravenous infusion at 10 mg/kg/day, time 72 h, read-out: Plasma concentration, individual animal): 514 ng/mL
concentration at 78 h ([2]; 10 mg/kg/day, 72-hour intravenous infusion at 10 mg/kg/day, time 78 h, read-out: Plasma concentration, Mean): 147 ng/mL
concentration at 78 h ([2]; 10 mg/kg/day, 72-hour intravenous infusion at 10 mg/kg/day, time 78 h, read-out: Plasma concentration, individual animal): 150 ng/mL
concentration at 84 h ([2]; 10 mg/kg/day, 72-hour intravenous infusion at 10 mg/kg/day, time 84 h, read-out: Plasma concentration, Mean): 80.9 ng/mL
concentration at 84 h ([2]; 10 mg/kg/day, 72-hour intravenous infusion at 10 mg/kg/day, time 84 h, read-out: Plasma concentration, individual animal): 74.8 ng/mL
concentration at 96 h ([2]; 10 mg/kg/day, 72-hour intravenous infusion at 10 mg/kg/day, time 96 h, read-out: Plasma concentration, Mean): 22.5 ng/mL
concentration at 96 h ([2]; 10 mg/kg/day, 72-hour intravenous infusion at 10 mg/kg/day, time 96 h, read-out: Plasma concentration, individual animal): 29.3 ng/mL
concentration at 24 h ([2]; 30 mg/kg/day, 72-hour intravenous infusion at 30 mg/kg/day, time 24 h, read-out: Plasma concentration, Mean): 2340 ng/mL
concentration at 24 h ([2]; 30 mg/kg/day, 72-hour intravenous infusion at 30 mg/kg/day, time 24 h, read-out: Plasma concentration, individual animal): 2420 ng/mL
concentration at 48 h ([2]; 30 mg/kg/day, 72-hour intravenous infusion at 30 mg/kg/day, time 48 h, read-out: Plasma concentration, Mean): 2210 ng/mL
concentration at 48 h ([2]; 30 mg/kg/day, 72-hour intravenous infusion at 30 mg/kg/day, time 48 h, read-out: Plasma concentration, individual animal): 3220 ng/mL
concentration at 72 h ([2]; 30 mg/kg/day, 72-hour intravenous infusion at 30 mg/kg/day, time 72 h, read-out: Plasma concentration, Mean): 1970 ng/mL
concentration at 72 h ([2]; 30 mg/kg/day, 72-hour intravenous infusion at 30 mg/kg/day, time 72 h, read-out: Plasma concentration, individual animal): 2210 ng/mL
concentration at 78 h ([2]; 30 mg/kg/day, 72-hour intravenous infusion at 30 mg/kg/day, time 78 h, read-out: Plasma concentration, Mean): 544 ng/mL
concentration at 78 h ([2]; 30 mg/kg/day, 72-hour intravenous infusion at 30 mg/kg/day, time 78 h, read-out: Plasma concentration, individual animal): 597 ng/mL
concentration at 84 h ([2]; 30 mg/kg/day, 72-hour intravenous infusion at 30 mg/kg/day, time 84 h, read-out: Plasma concentration, Mean): 306 ng/mL
concentration at 96 h ([2]; 30 mg/kg/day, 72-hour intravenous infusion at 30 mg/kg/day, time 96 h, read-out: Plasma concentration, Mean): 90.8 ng/mL
concentration at 96 h ([2]; 30 mg/kg/day, 72-hour intravenous infusion at 30 mg/kg/day, time 96 h, read-out: Plasma concentration, individual animal): 81.6 ng/mL
concentration at 24 h ([2]; 100 mg/kg/day, 72-hour intravenous infusion at 100 mg/kg/day, time 24 h, read-out: Plasma concentration, Mean): 7740 ng/mL
concentration at 24 h ([2]; 100 mg/kg/day, 72-hour intravenous infusion at 100 mg/kg/day, time 24 h, read-out: Plasma concentration, individual animal): 8270 ng/mL
concentration at 48 h ([2]; 100 mg/kg/day, 72-hour intravenous infusion at 100 mg/kg/day, time 48 h, read-out: Plasma concentration, Mean): 6720 ng/mL
concentration at 48 h ([2]; 100 mg/kg/day, 72-hour intravenous infusion at 100 mg/kg/day, time 48 h, read-out: Plasma concentration, individual animal): 6070 ng/mL
concentration at 72 h ([2]; 100 mg/kg/day, 72-hour intravenous infusion at 100 mg/kg/day, time 72 h, read-out: Plasma concentration, Mean): 6840 ng/mL
